# Values joined by “and” are separate entries in the source; they are usually repeats but may differ in a detail not shown here. Equal values may be shown once. Read-outs that look alike come from different tables or passages of the source. Marks after values point to notes of the source that are not given here.
# What was measured:
# [1] = test system: chloroquine-resistant K1 strain of P. falciparum; test: in vitro screen against chloroquine-resistant K1 strain of P. falciparum; format: cell-based; settings: for IC50: Plasmodium falciparum, K1, read-out: IC50 (ng/ml) K1; for IC50 (ng/ml) K1: in vitro, K1 strain
# [2] = test system: chloroquine-sensitive NF54 strain of P. falciparum; test: in vitro screen against chloroquine-sensitive NF54 strain of P. falciparum; format: cell-based
# [3] = test system: ANKA strain of P. Berghei; test: single dose STI in vivo screen in infected Moro SPF mice; settings: for inhibition in vivo at 10 mg/kg / inhibition in vivo at 100 mg/kg: Plasmodium berghei, 72 h; for inhibition in vivo at 10 mg/kg / inhibition in vivo at 100 mg/kg / Activity (%) po / Activity (%) sc: percent reduction in parasitemia day 3 post-infection; for antimalarial activity, overall assessment: overall judgement of in vitro and in vivo data of Table 2
# P. berghei [4] = test: 1-day Peters test against P. berghei in vivo; settings: for ED50 / ED90: Plasmodium berghei, 24 h; for P. berghei (1 day) ED90 sc / ED50 / ED90 / P. berghei (1 day) ED50 po / P. berghei (1 day) ED90 po / P. berghei (1 day) ED50 sc: 1 day; for ED90: read-out: P. berghei (1 day) ED90 po
# adult S. mansoni = test: activity against adult S. mansoni, treated once at day 49 of infection; format: in vivo; settings: OZ05 200 mg/kg p.o., OZ11 100 mg/kg p.o.
# [5] = test system: 21-day-old schistosomules of Schistosoma mansoni; test: effect on 21-day-old schistosomules in mice; format: in vivo; settings: single 200 mg/kg per os; for TWR (%): total worm reduction rate; for FWR (%): female worm reduction rate; for Mean female worm burden: mean ± standard deviation
# Method: […] Each group was treated per os with OZ compounds at a single dose of 200 mg/kg. Untreated mice served as the control. All groups were killed 4 weeks after treatment and the liver and intestine were removed and separated. The liver and intestine were compressed and alive male and female worms could be seen and counted. The effect of the compounds was evaluated by mean total and female worm burden.
# [6] = test system: adult schistosomes (49-day-old) of Schistosoma mansoni; test: effect on adult schistosomes (49-day-old) in mice; format: in vivo; settings: single 400 mg/kg per os; for TWR (%): total worm reduction rate; for Mean total worm burden: x ± SD
# Method: Mice were infected with 100 Schistosoma mansoni cercariae […]. Each group was treated per os with OZ compounds at a single dose of 400 mg/kg. Untreated mice served as the control. All groups were killed 4 weeks after treatment and the liver and intestine were removed and separated. The liver and intestine were compressed and alive male and female worms could be seen and counted.
# P. berghei [7] = test: 4-day Peters test against P. berghei in vivo; settings: 4 day; for ED50: Plasmodium berghei, 96 h
# NB2a cell line = test: neurotoxicity against the NB2a cell line; format: cell-based
# parasitemia = test: onset of drug action and recrudescence after single oral dose; format: in vivo; settings: for duration of action compared with artemether: single 100 mg/kg po; for Recrudescence (>5% parasitemia) occurs on day: single 100 mg/kg po on day +3 post-infection
# Method: The reduction of parasitemia was monitored 12 h after treatment, and the time of recrudescence was assessed by daily blood smears for 14 days, followed by intermittent assessment for up to 30 days.
# Schistosoma mansoni = test: treatment of mice infected with Schistosoma mansoni cercaria, six weekly oral doses; format: in vivo; settings: for activity in the same assay: artemether at doses four times higher than OZ05, arteflene 6×600 mg/kg p.o., fenozan 6×100 mg/kg p.o.
# Excerpt: Mice (MORO SPF female 18-20g) were infected with 90 (±10) cecaria of Schistosoma mansoni subcutaneously.
# [8] = differential scanning calorimetry (DSC), thermal stability; format: physicochemical; settings: thermal decomposition
# [9] = single 100 mg/kg po, survival to day 30 = cure
# [10] = single 100 mg/kg sc, survival to day 30 = cure
# [11] = po, read-out: P. berghei (1 day) ED50 po
# [12] = sc, read-out: P. berghei (1 day) ED50 sc
molecule,measurement,setting,value
"CO[C@H]1O[C@@H]2O[C@@]3(C)CC[C@H]4[C@H](C)CC[C@@H]([C@H]1C)[C@@]24OO3 [Artemether, artemether, reference compound]",IC50,[1],0.5 ng/mL
same,IC50,"[2]; Plasmodium falciparum, NF54, read-out: IC50 (ng/ml) NF54",0.37 ng/mL
same,inhibition in vivo at 10 mg/kg,"[3]; single 10 mg/kg po, read-out: Activity (%) po",98.7%
same,inhibition in vivo at 10 mg/kg,"[3]; single 10 mg/kg sc, read-out: Activity (%) sc",100%
same,inhibition in vivo at 100 mg/kg,"[3]; single 100 mg/kg po, read-out: Activity (%) po",100%
same,inhibition in vivo at 100 mg/kg,"[3]; single 100 mg/kg sc, read-out: Activity (%) sc",100%
same,Survival (days) po,[3]; single 10 mg/kg po,8.0 days
same,Survival (days) sc,[3]; single 10 mg/kg sc,9.0 days
same,Survival (days) po,[3]; [9],14.7/14.7 days
same,Survival (days) sc,[3]; [10],14.7/14.7 days
same,P. berghei (1 day) ED90 sc,P. berghei [4]; sc,2.3 mg/kg
same,ED50,P. berghei [4]; [11],2 mg/kg
same,ED90,P. berghei [4]; po,4.3 mg/kg
same,ED50,P. berghei [4]; [12],2.1 mg/kg
same,activity against adult S. mansoni,adult S. mansoni,no activity
same,TWR (%),[5],82.2%
same,TWR (%),[6],31.0%
"C1CCC2(CC1)OOC1(O2)C2CC3CC(C2)CC1C3 (stereo not shown) [OZ03, Adamantane-2-spiro-3′-1′,2′,4′-trioxaspiro[4.5]decane]",IC50,[1],1.2 ng/mL
same,"antimalarial activity, overall assessment",[3],more active
same,Activity (%) po,[3]; single 10 mg/kg po,94%
same,Activity (%) sc,[3]; single 10 mg/kg sc,100%
same,Activity (%) po,[3]; single 100 mg/kg po,100/100%
same,Activity (%) sc,[3]; single 100 mg/kg sc,100/100%
same,Survival (days) po,[3]; single 10 mg/kg po,7.2 days
same,Survival (days) sc,[3]; single 10 mg/kg sc,11.9 days
same,Survival (days) po,[3]; [9],14.3 days
same,Survival (days) sc,[3]; [10],28 days
same,P. berghei (1 day) ED90 sc,P. berghei [4]; sc,2.2 mg/kg
same,ED50,P. berghei [4]; [11],5 mg/kg
same,ED90,P. berghei [4]; po,8.8 mg/kg
same,ED50,P. berghei [4]; [12],0.7 mg/kg
same,P. berghei (4 day) ED90 po,P. berghei [7]; po,2.7 mg/kg
same,P. berghei (4 day) ED90 sc,P. berghei [7]; sc,1.1 mg/kg
same,ED50,"P. berghei [7]; po, read-out: P. berghei (4 day) ED50 po",1 mg/kg
same,ED50,"P. berghei [7]; sc, read-out: P. berghei (4 day) ED50 sc",0.6 mg/kg
same,IC50,NB2a cell line,13 µM
same,duration of action compared with artemether,parasitemia,comparable
same,Recrudescence (>5% parasitemia) occurs on day,parasitemia,7 days
"O=C1CCC2(CC1)OOC1(O2)C2CC3CC(C2)CC1C3 (stereo not shown) [OZ05, Adamantane-2-spiro-3′-8′-oxo-1′,2′,4′-trioxaspiro[4.5]decane]",IC50 (ng/ml) K1,[1],0.19 ng/mL
same,"antimalarial activity, overall assessment",[3],more active
same,Activity (%) po,[3]; single 100 mg/kg po,100/100%
same,Activity (%) sc,[3]; single 100 mg/kg sc,100/100%
same,Survival (days) po,[3]; [9],10.7 days
same,Survival (days) sc,[3]; [10],30 days
same,P. berghei (1 day) ED50 po,P. berghei [4]; po,3.5 mg/kg
same,P. berghei (1 day) ED90 po,P. berghei [4]; po,7.0 mg/kg
same,P. berghei (1 day) ED50 sc,P. berghei [4]; sc,0.16 mg/kg
same,P. berghei (1 day) ED90 sc,P. berghei [4]; sc,2.3 mg/kg
same,P. berghei (4 day) ED50 po,P. berghei [7]; po,1.5 mg/kg
same,P. berghei (4 day) ED90 po,P. berghei [7]; po,6.1 mg/kg
same,P. berghei (4 day) ED50 sc,P. berghei [7]; sc,0.6 mg/kg
same,P. berghei (4 day) ED90 sc,P. berghei [7]; sc,1.0 mg/kg
same,IC50,NB2a cell line; NB2a cell line,31 µM
same,duration of action compared with artemether,parasitemia,comparable
same,Recrudescence (>5% parasitemia) occurs on day,parasitemia,5 days
same,reduction in parasitaemia,"Schistosoma mansoni; 100 mg/kg p.o. on days 7, 14, 21, 28, 35, 42, individual mice",100% and 53%
same,activity against adult S. mansoni,adult S. mansoni,showed activity
same,FWR (%),[5],88%
same,Mean female worm burden,[5],1.5 ± 1.0^b
same,TWR (%),[5],90%
same,Percentage of dead worm,[6],13.4 (31/232)
same,Total dead worm,[6],31
same,TWR (%),[6],0%
same,Mean total worm burden,[6],40.2 ± 13.6
same,Tm dec. (° C.),[8],156.3 °C
"CC1(C)COC2(CCC3(CC2)OOC2(O3)C3CC4CC(C3)CC2C4)OC1 (stereo not shown) [OZ11, Adamantane-2-spiro-3′-11′,11′-dimethyl-1′,2′,4′,9′,13′-pentaoxadispiro[4.2.5.2]pentadecane]",P. berghei (1 day) ED50 po,P. berghei [4]; po,1.5 mg/kg
same,P. berghei (1 day) ED90 po,P. berghei [4]; po,2.8 mg/kg
same,P. berghei (1 day) ED90 sc,P. berghei [4]; sc,NA/0.87 mg/kg
same,P. berghei (4 day) ED50 po,P. berghei [7]; po,1.8 mg/kg
same,P. berghei (4 day) ED90 po,P. berghei [7]; po,3.1 mg/kg
same,P. berghei (4 day) ED50 sc,P. berghei [7]; sc,0.5 mg/kg
same,P. berghei (4 day) ED90 sc,P. berghei [7]; sc,0.9 mg/kg
same,duration of action compared with artemether,parasitemia,longer
same,Recrudescence (>5% parasitemia) occurs on day,parasitemia,10 days
same,activity against adult S. mansoni,adult S. mansoni,showed activity
same,FWR (%),[5],84%
same,Mean female worm burden,[5],2.0 ± 1.9^b
same,TWR (%),[5],85%
same,Percentage of dead worm,[6],3.9 (6/156)
same,Total dead worm,[6],6
same,TWR (%),[6],16.2%
same,Mean total worm burden,[6],30.0 ± 1.9^a
same,Tm dec. (° C.),[8],162.4 °C
"C[C@@H]1C(=O)C[C@H]2C[C@@H]1OO[C@@]2(C)/C=C\c1ccc(C(F)(F)F)cc1C(F)(F)F [arteflene, reference compound]",activity in the same assay,Schistosoma mansoni,inactive
fenozan [reference compound],IC50 (ng/ml) K1,[1],3.2 ng/mL
same,IC50 (ng/ml) NF54,"[2]; in vitro, NF54 strain",3.0 ng/mL
same,Activity (%) po,[3]; single 10 mg/kg po,99.95%
same,Activity (%) sc,[3]; single 10 mg/kg sc,100%
same,Survival (days) po,[3]; single 10 mg/kg po,8.6 days
same,Survival (days) sc,[3]; single 10 mg/kg sc,13.4 days
same,P. berghei (1 day) ED50 po,P. berghei [4]; po,1.7 mg/kg
same,P. berghei (1 day) ED90 po,P. berghei [4]; po,4.3 mg/kg
same,P. berghei (1 day) ED50 sc,P. berghei [4]; sc,1.7 mg/kg
same,P. berghei (1 day) ED90 sc,P. berghei [4]; sc,3.2 mg/kg
same,oral activity based on po ED50/ED90 values,"P. berghei [4]; po, ranking among trioxolanes and controls",only slightly less orally active than OZ11
same,P. berghei (4 day) ED50 po,P. berghei [7]; po,1.9 mg/kg
same,P. berghei (4 day) ED90 po,P. berghei [7]; po,2.7 mg/kg
same,P. berghei (4 day) ED50 sc,P. berghei [7]; sc,1.1 mg/kg
same,P. berghei (4 day) ED90 sc,P. berghei [7]; sc,2.3 mg/kg
same,activity in the same assay,Schistosoma mansoni,inactive

# — patent US6486199B1, “Spiro and dispiro 1,2,4-trioxolane antimalarials” (Medicines for Malaria Venture MMV International Centre …, priority 2001, dated 2002)
